The target in assay [1] is human immunoproteasome (LMP7) (Homo sapiens (Human), UniProt P28062). In words: Determination of LMP7 activity (fluorescence intensity assay, Suc-LLVY-AMC). Format: biochemical. Conditions: for Selectivity LMP7 vs Beta5: LMP7 versus Beta5; for IC50: purified human immunoproteasome 0.25 nM, Suc-LLVY-AMC 40 μM. Put shortly:
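0.25 nM purified human immunoproteasome preincubated 20 min at 25 °C with serially diluted compounds in 50 mM Tris pH 7.4, 0.03% SDS, 1 mM EDTA, 1% DMSO. Reaction started with 40 μM Suc-LLVY-AMC, run 60 min at 37 °C. Fluorescence read at ex 350/em 450 nm.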

In assay [2] the target is human constitutive proteasome (Beta5) (Homo sapiens (Human), UniProt P28074). Put plainly: Determination of Beta5 activity (fluorescence intensity assay, Suc-LLVY-AMC). The class given is biochemical. Conditions: purified human constitutive proteasome 1.25 nM, Suc-LLVY-AMC 40 μM. Summed up: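 Purified constitutive proteasome (1.25 nM) was preincubated with compounds 20 min at 25 °C in 50 mM Tris pH 7.4, 0.03% SDS, 1 mM EDTA, 1% DMSO. Suc-LLVY-AMC (40 μM) was then added for 60 min at 37 °C. AMC fluorescence was read at ex 350/em 450 nm.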

In the case of `CC(C)(O)c1ccc(CC(=O)N[C@@H](Cc2coc3ccccc23)B(O)O)cc1` [Compound No. 91, [(1R)-2-(benzofuran-3-yl)-1-[[2-[4-(1-hydroxy-1-methyl-ethyl)phenyl]acetyl]amino]ethyl]boronic acid], in assay [1], the “Selectivity LMP7 vs Beta5” value is “+++++ (Selectivity ≥ 100)” and the IC50 (in general, the concentration needed to halve the response being measured) was < 50 nM. Further, the IC50 in assay [2] is 50 to 500 nM.
On the same counts, the results for `COc1cccc2c(C[C@H](NC(=O)Cc3ccccc3)B(O)O)coc12` [Compound No. 92, [(1R)-2-(7-methoxybenzofuran-3-yl)-1-[(2-phenylacetyl)amino]ethyl]-boronic acid] are “+++++ (Selectivity ≥ 100)”, < 50 nM and 50 to 500 nM.
As to `CO[C@@H](C(=O)N[C@@H](CC1COc2c(C)cccc21)B(O)O)c1ccccc1` (stereo partly drawn) [Compound No. 93, [(1R)-1-[[(2R)-2-methoxy-2-phenyl-acetyl]amino]-2-(7-methyl-2,3-dihydrobenzofuran-3-yl)ethyl]boronic acid], in assay [1], the “Selectivity LMP7 vs Beta5” value is recorded as “+++++ (Selectivity ≥ 100)” and the IC50 is < 50 nM. Further, the IC50 in assay [2] is > 5000 nM.
Consider `Cc1ccc2c(C[C@H](NC(=O)Cc3ccccc3)B(O)O)coc2c1C` [Compound No. 94, [(1R)-2-(6,7-dimethylbenzofuran-3-yl)-1-[(2-phenylacetyl)amino]ethyl]boronic acid], for which the “Selectivity LMP7 vs Beta5” value in assay [1] is “+++++ (Selectivity ≥ 100)”. The IC50 is < 50 nM in assay [1] and 500 to 5000 nM in assay [2].
Regarding `COc1ccc(CCC(=O)N[C@@H](Cc2coc3c(C)c(C)ccc23)B(O)O)nc1` [Compound No. 95, [(1R)-2-(6,7-dimethylbenzofuran-3-yl)-1-[3-(5-methoxy-2-pyridyl)propanoylamino]ethyl]boronic acid], in assay [1], the “Selectivity LMP7 vs Beta5” value is “+++++ (Selectivity ≥ 100)” and the IC50 was < 50 nM. In assay [2], the IC50 lay within 500 to 5000 nM.
`C[C@H](C(=O)N[C@@H](Cc1coc2ccccc12)B(O)O)c1ccccc1C(=O)N(C)C` [Compound No. 96, [(1R)-2-(benzofuran-3-yl)-1-[[(2S)-2-[2-(dimethylcarbamoyl)phenyl]-propanoyl]amino]ethyl]boronic acid]: in assay [1], the “Selectivity LMP7 vs Beta5” value is recorded as “+++++ (Selectivity ≥ 100)” and the IC50 was 50 to 500 nM. Moreover, in assay [2], the IC50 was > 5000 nM.
As to `C[C@@H](C(=O)N[C@@H](Cc1coc2ccccc12)B(O)O)c1ccccc1C(=O)N(C)C` [Compound No. 97, [(1R)-2-(benzofuran-3-yl)-1-[[(2R)-2-[2-(dimethylcarbamoyl)-phenyl]propanoyl]amino]ethyl]boronic acid], in assay [1], the “Selectivity LMP7 vs Beta5” value is on record as “+++++ (Selectivity ≥ 100)” and the IC50 is 50 to 500 nM. For the same compound, the IC50 in assay [2] was > 5000 nM.
Consider `O=C(Cc1ccccc1-c1ccccc1)N[C@@H](Cc1coc2ccccc12)B(O)O` [Compound No. 98, [(1R)-2-(benzofuran-3-yl)-1-[[2-(2-phenylphenyl)acetyl]amino]-ethyl]boronic acid], for which the “Selectivity LMP7 vs Beta5” value in assay [1] is given as “++++ (70 ≤ Selectivity < 100)”. Besides, the half-inhibitory concentration (IC50) in assay [1] was < 50 nM; in assay [2], 500 to 5000 nM.
Take `C[C@@H](C(=O)N[C@@H](C[C@@H]1COc2ccccc21)B(O)O)c1ccccc1C(=O)N(C)C` [Compound No. 99, [(1R)-2-[(3S)-2,3-dihydrobenzofuran-3-yl]-1-[[(2R)-2-[2-(dimethylcarbamoyl)phenyl]propanoyl]amino]ethyl]boronic acid]: in assay [1], the “Selectivity LMP7 vs Beta5” value was “+++++ (Selectivity ≥ 100)” and the IC50 is 50 to 500 nM. The IC50 in assay [2] was > 5000 nM.
Turning to `Cc1cccc2c1OCC2C[C@H](NC(=O)Cc1ccccc1C(=O)N(C)C)B(O)O` (stereo partly drawn) [Compound No. 100, [(1R)-1-[[2-[2-(dimethylcarbamoyl)phenyl]acetyl]amino]-2-(7-methyl-2,3-dihydrobenzofuran-3-yl)ethyl]boronic acid], in assay [1], the “Selectivity LMP7 vs Beta5” value is on record as “+++++ (Selectivity ≥ 100)” and the IC50 is 50 to 500 nM. The IC50 in assay [2] was > 5000 nM.
As to `Cc1ccc2c(c1C)OCC2C[C@H](NC(=O)Cc1ccccc1)B(O)O` (stereo partly drawn) [Compound No. 101, [(1R)-2-(6,7-dimethyl-2,3-dihydrobenzofuran-3-yl)-1-[(2-phenylacetyl)-amino]ethyl]boronic acid], in assay [1], the “Selectivity LMP7 vs Beta5” value is on record as “+++++ (Selectivity ≥ 100)” and the IC50 is < 50 nM. Further, in assay [2], the IC50 is > 5000 nM.
For `COc1ccc(CCC(=O)N[C@@H](CC2COc3c2ccc(C)c3C)B(O)O)nc1` (stereo partly drawn) [Compound No. 102, [(1R)-2-(6,7-dimethyl-2,3-dihydrobenzofuran-3-yl)-1-[3-(5-methoxy-2-pyridyl)propanoylamino]ethyl]boronic acid], in assay [1], the “Selectivity LMP7 vs Beta5” value is “+++++ (Selectivity ≥ 100)” and the IC50 was in the range of 50 to 500 nM. In addition, the IC50 in assay [2] is > 5000 nM.
For the compound `CC(=O)Nc1ccccc1CC(=O)N[C@@H](Cc1coc2ccccc12)B(O)O` [Compound No. 103, [(1R)-1-[[2-(2-acetamidophenyl)acetyl]amino]-2-(benzofuran-3-yl)ethyl]boronic acid], the “Selectivity LMP7 vs Beta5” value in assay [1] is “++++ (70 ≤ Selectivity < 100)”. In assay [2], the IC50 lay within 500 to 5000 nM.
As to `Cc1cccc2c(C[C@H](NC(=O)Cc3ccccc3C#N)B(O)O)coc12` [Compound No. 104, [(1R)-1-[[2-(2-cyanophenyl)acetyl]amino]-2-(7-methylbenzofuran-3-yl)ethyl]boronic acid], the “Selectivity LMP7 vs Beta5” value in assay [1] is “+++++ (Selectivity ≥ 100)”. In addition, the IC50 in assay [1] is < 50 nM; in assay [2], 500 to 5000 nM.
On the same counts, the results for `N#Cc1ccccc1CC(=O)N[C@@H](C[C@@H]1COc2ccccc21)B(O)O` [Compound No. 105, [(1R)-1-[[2-(2-cyanophenyl)acetyl]amino]-2-[(3S)-2,3-dihydrobenzofuran-3-yl]ethyl]boronic acid] are “+++++ (Selectivity ≥ 100)”, < 50 nM and 500 to 5000 nM.
Regarding `C[C@H](C(=O)N[C@@H](C[C@H]1COc2ccccc21)B(O)O)c1ccccc1C(=O)N(C)C` [Compound No. 106, [(1R)-2-[(3R)-2,3-dihydrobenzofuran-3-yl]-1-[[(2S)-2-[2-(dimethylcarbamoyl)phenyl]propanoyl]amino]ethyl]boronic acid], the “Selectivity LMP7 vs Beta5” value in assay [1] was “+++++ (Selectivity ≥ 100)”. Besides, the values for the IC50 in assay [1] and in assay [2] were < 50 nM and > 5000 nM, respectively.
As to `C[C@H](C(=O)N[C@@H](C[C@@H]1COc2ccccc21)B(O)O)c1ccccc1C(=O)N(C)C` [Compound No. 107, [(1R)-2-[(3S)-2,3-dihydrobenzofuran-3-yl]-1-[[(2S)-2-[2-(dimethylcarbamoyl)phenyl]propanoyl]amino]ethyl]boronic acid], in assay [1], the “Selectivity LMP7 vs Beta5” value is recorded as “++ (10 ≤ Selectivity < 50)”. Besides, the figures for the IC50 in assay [1] and in assay [2] were 500 to 5000 nM and > 5000 nM, respectively.
For `COc1ccc(CC(=O)N[C@@H](Cc2cc3ccccc3o2)B(O)O)cc1` [Compound No. 108, [(1R)-2-(benzofuran-2-yl)-1-[[2-(4-methoxyphenyl)acetyl]-amino]ethyl]boronic acid], in assay [1], the “Selectivity LMP7 vs Beta5” value was “+++++ (Selectivity ≥ 100)” and the IC50 is < 50 nM. Moreover, the IC50 in assay [2] was in the range of 500 to 5000 nM.
In the same order, the values of `CCO[C@@H](C(=O)N[C@@H](CC1COc2c(C)cccc21)B(O)O)c1ccccc1` (stereo partly drawn) [Compound No. 109, [(1R)-1-[[(2R)-2-ethoxy-2-phenyl-acetyl]amino]-2-(7-methyl-2,3-dihydrobenzofuran-3-yl)ethyl]boronic acid] are “+++++ (Selectivity ≥ 100)”, < 50 nM and > 5000 nM.
As for `O=C(Cc1ccccc1)N[C@@H](Cc1cc2ccccc2o1)B(O)O` [Compound No. 110, [(1R)-2-(benzofuran-2-yl)-1-[(2-phenylacetyl)amino]ethyl]boronic acid], the “Selectivity LMP7 vs Beta5” value in assay [1] is on record as “++++ (70 ≤ Selectivity < 100)”. In addition, the IC50 was 50 to 500 nM in assay [1] and > 5000 nM in assay [2].
In the same order, the values of `CCO[C@@H](C(=O)N[C@@H](CC1COc2ccccc21)B(O)O)c1ccccc1` (stereo partly drawn) [Compound No. 111, [(1R)-2-(2,3-dihydrobenzofuran-3-yl)-1-[[(2R)-2-ethoxy-2-phenyl-acetyl]amino]ethyl]boronic acid] are “+++++ (Selectivity ≥ 100)”, < 50 nM and > 5000 nM.
`O=C(Cc1ccccn1)NC(Cc1coc2ccccc12)B(O)O` (centres unmarked) [Compound No. 112, [2-(benzofuran-3-yl)-1-[[2-(2-pyridyl)acetyl]amino]ethyl]boronic acid]: in assay [1], the “Selectivity LMP7 vs Beta5” value was “+++++ (Selectivity ≥ 100)” and the IC50 was < 50 nM. The IC50 in assay [2] was 500 to 5000 nM.
In the same order, the values of `CCOc1ccc(CC(=O)N[C@@H](Cc2coc3c(Cl)cccc23)B(O)O)nc1` [Compound No. 113, [(1R)-2-(7-chlorobenzofuran-3-yl)-1-[[2-(5-ethoxy-2-pyridyl)acetyl]amino]ethyl]boronic acid] are “+++++ (Selectivity ≥ 100)”, < 50 nM and 500 to 5000 nM.
In the same order, the values of `COc1ccc(CC(=O)N[C@@H](C[C@@H]2COc3ccccc32)B(O)O)cc1` [Compound No. 114, [(1R)-2-[(3S)-2,3-dihydrobenzofuran-3-yl]-1-[[2-(4-methoxyphenyl)-acetyl]amino]ethyl]boronic acid] are “+++++ (Selectivity ≥ 100)”, < 50 nM and 500 to 5000 nM.

For the origin of these results see patent US10294246B2, “Substituted boronic acids and boronate esters as immunoproteasome inhibitors” (MERCK PATENT GMBH, priority 2014, dated 2019).
